Results on 69 molecules are retold here after ChEMBL document CHEMBL3507680, “University of Dundee, Gates Library screen for HepG2 cell viability”.

Molecules are shown by their SMILES.

The data set in a line: Human HepG2 cell viability assay in 384 well format. Type of data set: toxicity, cell-based. Set-up: dose 125 nL, time 70.5 hour; concentration not given beside the values. The following applies: HepG2 cells, read-out: Inhibition.
For the molecule `CC(=O)Nc1cccc(C(=O)N(C)C(C)Cc2cc(C)ccn2)c1` (centres undefined), the cytotoxicity at 70.5 h is -2.97%. To `CCN(CC)C(=O)Cn1cc(-c2nc(C(C)C)no2)nn1` belongs -9.42%; to `COc1ccc(-c2ncc(-c3nccn3CCN(C)C)cn2)cc1`, -10.5%; to `COc1nccnc1-c1cc(NC2CCCC2)nc2[nH]ccc12`, -16.1%. To `CCc1nnc(N2CCN(CCc3ccccc3)C(=O)C2)o1` belongs -2.76%; to `COc1ncccc1-c1cc(C(=O)NC2CC2)ccn1`, -8.1%. For the molecule `CC(C)N1CCC(CC(=O)N(C)C(C)c2cncs2)CC1` (centres undefined), the cytotoxicity at 70.5 h is -15.3%. Regarding `CCc1cc(C(=O)NCC2CCN(Cc3cccc(C#N)c3)C2)on1` (centres undefined), the cytotoxicity at 70.5 h is -1.72%. With `O=C(NCC1CCN(Cc2cc3ccccc3[nH]2)C1)c1ccsc1` (centres undefined), the cytotoxicity at 70.5 h is -9.16%. To `COc1cccn(CC(=O)N(C)CCCOc2c(C)cccc2C)c1=O` belongs 29.5%; to `C[C@@H]1CN(C(=O)CCCn2nnc(-c3ccc(F)cc3)n2)C[C@]1(C)O`, 22.7%. With `CC(C)(C)c1cc(=O)[nH]c(-c2ccccc2CN2CCCCCC2)n1` the figure was -3.97%; with `Nc1ccnc(N2C[C@@H]3CC[C@H](C2)N(CC2CCC2)C3=O)n1`, -3.52%; with `Cc1[nH]c(=O)[nH]c(=O)c1CC(=O)N1CCC(Oc2ccc(F)cc2)CC1`, -12.2%.

As to `COc1ccc([C@@H]2C[C@H](NC(C)=O)C[C@H](CCc3ccccc3)O2)cn1`, the cytotoxicity at 70.5 h was -4.78%. As for `O=c1cc(N2CCCCC2)cnn1CCCn1cccn1`, the cytotoxicity at 70.5 h turned out to be 4.12%. Take `Cc1ccc(CN(C)c2nccc(-c3cn(C)nc3C)n2)o1`: the cytotoxicity at 70.5 h was -9.08%. To `O=C(NCc1cc2n(n1)CCCNC2)C1(c2ccccc2)CCCCC1` belongs 0.103%.

Consider `Cc1cc(C(F)(F)F)nc(CCNC(C)Cn2ccnc2)n1` (centres undefined), for which the cytotoxicity at 70.5 h is -23.4%. Regarding `Cc1nc(-c2cn(CCN)nn2)n(-c2ccc3c(c2)CCC3)n1`, the cytotoxicity at 70.5 h is -4.36%. In the case of `CN(Cc1n[nH]c(=O)n1CCc1ccccc1F)S(C)(=O)=O`, the cytotoxicity at 70.5 h was -1.83%. Regarding `Nc1cc(C(=O)NCC2CCN(Cc3cccc(O)c3)C2)ccn1` (centres undefined), the cytotoxicity at 70.5 h came to 18.3%. With `COCC1CCN(c2nc(C(C)(C)C)nc3c2cnn3C)C1` (centres undefined) the figure was 15.8%. To `NC(=O)CN1CC2(CCC1=O)CCN(Cc1ccc(Cl)c(F)c1)CC2` belongs 2.58%; to `CN1CCC(C)(CN(C)C(=O)c2ccc(CCC(C)(C)O)cc2)C1` (centres undefined), -1.78%.

With `O=C1CCC2(CCOC2)CN1Cc1ccc2nsnc2c1` (centres undefined), the cytotoxicity at 70.5 h was -3.21%. With `O=C(NCCc1ccncc1)c1cccc(S(=O)(=O)NC2CCOC2)c1` (centres undefined) the figure was 5.63%; with `Cc1[nH]nc(CCC(=O)NCC2CCCN(C3CCCC3)C2)c1C` (centres undefined), -5.73%.

As to `COc1ccc2c(=O)n(CC3CCNC3)ccc2c1OC` (centres undefined), the cytotoxicity at 70.5 h is 1.63%. Turning to `O=C(c1cnc(O)cn1)N1CCC(CN2CCOCC2)CC1`, the cytotoxicity at 70.5 h was -13.8%.

Turning to `CCn1c(CN(C)C)nnc1C1CCN(Cc2cccc(F)c2F)CC1`, the cytotoxicity at 70.5 h is -1.68%.

For `COCC(=O)N1CCCC(COc2ccccc2C)C1` (centres undefined), the cytotoxicity at 70.5 h was determined as 12.8%. With `O=C(NCCc1cccs1)N1CCCC2(CCC(=O)N(C3CC3)C2)C1` (centres undefined), the cytotoxicity at 70.5 h is -0.67%. To `CCc1cc(N(C)Cc2nonc2C)nc(N2CCOCC2)n1` belongs 1.99%; to `COc1ncc(CN(C)C(C)c2cccnc2)cn1` (centres undefined), 9.74%; to `Cc1ccccc1-c1noc(-c2ccc(NCC3COCCO3)nc2)n1` (centres undefined), -3.64%. To `CCOCCn1nc(C)cc1C(=O)N1CC[C@@](O)(COC)C(C)(C)C1` belongs 25.9%; to `COc1cccc2ncn(C(C)Cn3cccn3)c(=O)c12` (centres undefined), -3.99%; to `Cc1cncc(C(=O)N2CCNCC2C(=O)Nc2ccc(C)nc2)c1` (centres undefined), -3.64%. Turning to `CS(=O)(=O)c1ccc(CN2CCCCC2c2cccc(F)c2)cc1` (centres undefined), the cytotoxicity at 70.5 h was -9.66%.

As for `O=C1CC2(CCN(Cc3ccc(-c4ccn[nH]4)s3)CC2)CN1`, the cytotoxicity at 70.5 h was -13.8%.

For the molecule `O=C(c1cccc(Cl)c1)N1CCCC(Nc2ccc(F)cc2)C1` (centres undefined), the cytotoxicity at 70.5 h came to 2.07%. To `Cc1ccsc1CN1CCC(c2cc(C(C)C)n[nH]2)CC1` belongs -3.28%. To `CCc1ccc(-c2cn3c(C(=O)N[C@H](C(N)=O)[C@@H](C)O)csc3n2)cc1` belongs 15.1%; to `CC(=O)C1(c2ccccc2)CCN(C(=O)C2CNCCO2)CC1` (centres undefined), -7.25%; to `CC(C)CN1CCCC1c1ccc(C(=O)Nc2ccc3[nH]nnc3c2)s1` (centres undefined), -0.75%. On to `CN1[C@H]2CC[C@@H]1CN(C(=O)c1sccc1S(N)(=O)=O)CC2`, for which the cytotoxicity at 70.5 h is -4.92%. For the molecule `COc1cccc(O)c1CN1CCCC(Nc2cccc(F)c2)C1` (centres undefined), the cytotoxicity at 70.5 h came out at 0.789%. To `CCSc1ncc(CN2CC[C@@](O)(COC)C(C)(C)C2)cn1` belongs -18.2%; to `COCCn1ccnc1C1CCCN(C(=O)c2ccccc2C#N)C1` (centres undefined), 0.955%; to `Cc1noc(C)c1CCCNC(=O)Nc1ccc2c(c1)CC(=O)N2`, -8.94%. With `CCCc1cncnc1N1CCCC2(CCC(=O)N(C3CCCC3)C2)C1` (centres undefined), the cytotoxicity at 70.5 h was -9.78%. To `CSCC(=O)N1CCCN(c2ccncc2C)CC1` belongs -8.19%; to `Cc1ccc(C(=O)N2CCC3(CC2)c2ccccc2[C@@H](N)[C@@H]3O)cc1F`, -10.1%; to `O=C1N(C2CCOCC2)CCCC12CCN(c1ncccc1Cl)C2` (centres undefined), -14.5%. With `Cc1ccn(CC(=O)N2CC[C@@H](c3ccc4ccccc4c3)[C@H](O)C2)n1`, the cytotoxicity at 70.5 h is -10.1%. With `Cc1nc[nH]c1C(=O)N1CC[C@@H](NC(=O)c2ccccn2)[C@H](O)C1` the figure was -1.79%; with `CNc1cc(C(=O)N(C)Cc2cc(-c3cccs3)n[nH]2)ccn1`, 0.513%; with `CCc1cc(C(=O)NCC2CCN(Cc3cccc(C)n3)C2)on1` (centres undefined), -1.06%.

Turning to `FC(F)(F)c1ccnc(N2CCCN(Cc3ccccn3)CC2)n1`, the cytotoxicity at 70.5 h is 11.3%.

On to `Cc1ccc(O)c(C(=O)N2C[C@@H](C(=O)O)[C@H](c3ccccc3)C2)c1`, for which the cytotoxicity at 70.5 h is 0.313%. To `CN(CCCC1CCCO1)S(=O)(=O)NCc1ccccc1` (centres undefined) belongs 10.8%.

As for `CCCc1cc(N2CCC(NCCc3ccc(O)cc3)CC2)nc(C)n1`, the cytotoxicity at 70.5 h is -4.92%. To `CCNC(=O)[C@@H]1C[C@H](N)CN1C(=O)c1cccc(CCC(C)(C)O)c1` belongs -5.42%. To `O=C(c1cncc(N2CCCC3(CCNCC3)CC2)n1)N1CCCCC1` belongs 8.06%.

Regarding `Cn1ncnc1-c1ccnc(N2CCC(C(O)c3cccs3)CC2)n1` (centres undefined), the cytotoxicity at 70.5 h is -10.9%.

Consider `N#CC1(c2ccccc2)CCN(C(=O)C2CCCN(CC(N)=O)C2)CC1` (centres undefined), for which the cytotoxicity at 70.5 h amounted to 1.9%. With `CCC1CN(C(=O)c2cncc(C)c2)CCC(=O)N1Cc1ccccc1` (centres undefined) the figure was -3.22%.

In the case of `O=C(NCCC1CN(C2CCCC2)CCO1)c1c[nH]c(=O)[nH]c1=O` (centres undefined), the cytotoxicity at 70.5 h was -12.3%.
